Laboratory results reported in US20200060276A1, “THIAZOLE COMPOUND AND HERBICIDE” (OAT Agrio Co., Ltd., priority 2017, published 2020).

What was measured:
Type in all cases: in vivo
[1] = test system: Echinochloa crus-galli (L.) P. Beauv. var. formosensis Ohwi; experiment: Test for Herbicidal Effect in Flooding Treatment (#1), ECHDG; details: flooding treatment at seeding, dose 2 kg/ha, visual observation on day 21
Summary of the method: (§1)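 Flooded soil in cups was seeded 24 h after flooding, then treated with compound in acetone diluted with Tween 80-containing water, dropped onto the water surface at 2 kg/ha. After growth in a glasshouse, growth inhibition was scored visually on day 21 on a 0 (<10%) to 5 (≥90% or complete withering) scale.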

Scirpus juncoides = experiment: Test for Herbicidal Effect in Flooding Treatment (#1), SCIJU; details: flooding treatment at seeding, dose 2 kg/ha, visual observation on day 21
Summary of the method: as §1

Cyperus microiria = experiment: Test for Herbicidal Effect in Flooding Treatment (#1), CYMIC; details: flooding treatment at seeding, dose 2 kg/ha, visual observation on day 21
Method: (#1) Test for Herbicidal Effect in Flooding Treatment: Styrol cups each having an opening diameter of 8 cm (about 52 cm^2) were respectively filled with soil (45 ml) which had been passed through a sieve (2 mm). Water (about 115 ml) was mixed with the soil such that the soil was flooded. After the soil stood still for 24 hours, Monochoria vaginalis, Echinochloa crus-galli (L.) P. Beauv. var. formosensis Ohwi, Cyperus difformis (umbrella sedge), and Scirpus juncoides were seeded. Each of the compounds of the present invention was dissolved in acetone, and the obtained product was then diluted with water containing Tween 80®. Each of the resultant chemical solutions was dropped on the entire surface of an associated one of treatment sections, so that each section was treated with 1 ml of the respective chemical solution (a dose of 2 kg/ha). After the treatment, the plants were grown in a glasshouse. On day 21, a survey was conducted on the herbicidal activity by visual observation, and evaluation was made according to the following criteria. 0: Growth inhibition effect is less than 10%. 1: Growth inhibition effect is equal to or greater than 10%, and less than 30%. 2; Growth inhibition effect is equal to or greater than 30%, and less than 50%. 3: Growth inhibition effect equal to or greater than 50%, and less than 70%. 4: Growth inhibition effect is equal to or greater than 70%, and less than 90%. 5: Growth inhibition effect is equal to or greater than 90%, or complete withering is achieved. ECHDG=Echinochloa crus-galli (L.) P. Beauv. var. formosensis Ohwi, MONVA=Monochoria vaginalis, SCIJU=Scirpus juncoides, CYMIC=Cyperus microiria.

[2] = test system: Echinochloa crus-galli (L.) P. Beauv. var. formosensis Ohwi; experiment: Test for Herbicidal Effect in Flooding Treatment (#2), ECHDG at 2-2.5 leaf stage; details: flooding treatment at 2-2.5 leaf stage, dose 0.2 kg/ha, visual observation on day 21
Summary of the method: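 Flooded muddy soil was seeded with the weed, and at 2–2.5 leaf stage compound in acetone/Tween 80 water was dropped on the water surface at 0.2 kg/ha. Plants were kept in a glasshouse and scored visually on day 21 from 0 (<10% growth inhibition) to 5 (≥90% or complete withering).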

CCCCOc1cc(Cl)c(CS(=O)(=O)c2ncc(Cl)s2)c(Cl)c1 [Compound 1C-113]
ECHDG #1 herbicidal effect (growth inhibition grade) [1]: 5 (Growth inhibition effect is equal to or greater than 90%, or complete withering is achieved)
SCIJU #1 herbicidal effect (growth inhibition grade) (Scirpus juncoides): 5 (Growth inhibition effect is equal to or greater than 90%, or complete withering is achieved)
CYMIC #1 herbicidal effect (growth inhibition grade) (Cyperus microiria): 5 (Growth inhibition effect is equal to or greater than 90%, or complete withering is achieved)
ECHDG (2-2.5L) #2 herbicidal effect (growth inhibition grade) [2]: 5 (Growth inhibition effect is equal to or greater than 90%, or complete withering is achieved)

N#Cc1cccc(CS(=O)(=O)c2ncc(Cl)s2)c1 [Compound 1C-171]
ECHDG #1 herbicidal effect (growth inhibition grade) [1]: 5 (Growth inhibition effect is equal to or greater than 90%, or complete withering is achieved)
SCIJU #1 herbicidal effect (growth inhibition grade) (Scirpus juncoides): 5 (Growth inhibition effect is equal to or greater than 90%, or complete withering is achieved)
CYMIC #1 herbicidal effect (growth inhibition grade) (Cyperus microiria): 5 (Growth inhibition effect is equal to or greater than 90%, or complete withering is achieved)
ECHDG (2-2.5L) #2 herbicidal effect (growth inhibition grade) [2]: 3 (Growth inhibition effect equal to or greater than 50%, and less than 70%)

CCOc1c(Cl)cccc1CS(=O)(=O)c1ncc(Cl)s1 [Compound 1C-10]
ECHDG #1 herbicidal effect (growth inhibition grade) [1]: 5 (Growth inhibition effect is equal to or greater than 90%, or complete withering is achieved)
SCIJU #1 herbicidal effect (growth inhibition grade) (Scirpus juncoides): 5 (Growth inhibition effect is equal to or greater than 90%, or complete withering is achieved)
CYMIC #1 herbicidal effect (growth inhibition grade) (Cyperus microiria): 5 (Growth inhibition effect is equal to or greater than 90%, or complete withering is achieved)
ECHDG (2-2.5L) #2 herbicidal effect (growth inhibition grade) [2]: 5 (Growth inhibition effect is equal to or greater than 90%, or complete withering is achieved)

CCOc1c(Cl)cc(CS(=O)(=O)c2ncc(Cl)s2)cc1Cl [Compound 1C-106]
ECHDG #1 herbicidal effect (growth inhibition grade) [1]: 5 (Growth inhibition effect is equal to or greater than 90%, or complete withering is achieved)
SCIJU #1 herbicidal effect (growth inhibition grade) (Scirpus juncoides): 5 (Growth inhibition effect is equal to or greater than 90%, or complete withering is achieved)
CYMIC #1 herbicidal effect (growth inhibition grade) (Cyperus microiria): 5 (Growth inhibition effect is equal to or greater than 90%, or complete withering is achieved)
ECHDG (2-2.5L) #2 herbicidal effect (growth inhibition grade) [2]: 3 (Growth inhibition effect equal to or greater than 50%, and less than 70%)

CCOc1ccc(C)cc1CS(=O)(=O)c1ncc(Cl)s1 [Compound 1C-18]
ECHDG #1 herbicidal effect (growth inhibition grade) [1]: 5 (Growth inhibition effect is equal to or greater than 90%, or complete withering is achieved)
SCIJU #1 herbicidal effect (growth inhibition grade) (Scirpus juncoides): 5 (Growth inhibition effect is equal to or greater than 90%, or complete withering is achieved)
CYMIC #1 herbicidal effect (growth inhibition grade) (Cyperus microiria): 5 (Growth inhibition effect is equal to or greater than 90%, or complete withering is achieved)
ECHDG (2-2.5L) #2 herbicidal effect (growth inhibition grade) [2]: 5 (Growth inhibition effect is equal to or greater than 90%, or complete withering is achieved)

CCOc1c(Br)cc(Cl)cc1CS(=O)(=O)c1ncc(Cl)s1 [Compound 1C-24]
ECHDG #1 herbicidal effect (growth inhibition grade) [1]: 5 (Growth inhibition effect is equal to or greater than 90%, or complete withering is achieved)
SCIJU #1 herbicidal effect (growth inhibition grade) (Scirpus juncoides): 5 (Growth inhibition effect is equal to or greater than 90%, or complete withering is achieved)
CYMIC #1 herbicidal effect (growth inhibition grade) (Cyperus microiria): 5 (Growth inhibition effect is equal to or greater than 90%, or complete withering is achieved)
ECHDG (2-2.5L) #2 herbicidal effect (growth inhibition grade) [2]: 5 (Growth inhibition effect is equal to or greater than 90%, or complete withering is achieved)

CCOc1cc(F)c(CS(=O)(=O)c2ncc(Cl)s2)c(F)c1 [Compound 1C-103]
ECHDG #1 herbicidal effect (growth inhibition grade) [1]: 5 (Growth inhibition effect is equal to or greater than 90%, or complete withering is achieved)
SCIJU #1 herbicidal effect (growth inhibition grade) (Scirpus juncoides): 5 (Growth inhibition effect is equal to or greater than 90%, or complete withering is achieved)
CYMIC #1 herbicidal effect (growth inhibition grade) (Cyperus microiria): 5 (Growth inhibition effect is equal to or greater than 90%, or complete withering is achieved)
ECHDG (2-2.5L) #2 herbicidal effect (growth inhibition grade) [2]: 5 (Growth inhibition effect is equal to or greater than 90%, or complete withering is achieved)

CCOc1cc(C)ccc1CS(=O)(=O)c1ncc(Cl)s1 [Compound 1C-13]
ECHDG #1 herbicidal effect (growth inhibition grade) [1]: 5 (Growth inhibition effect is equal to or greater than 90%, or complete withering is achieved)
SCIJU #1 herbicidal effect (growth inhibition grade) (Scirpus juncoides): 5 (Growth inhibition effect is equal to or greater than 90%, or complete withering is achieved)
CYMIC #1 herbicidal effect (growth inhibition grade) (Cyperus microiria): 5 (Growth inhibition effect is equal to or greater than 90%, or complete withering is achieved)
ECHDG (2-2.5L) #2 herbicidal effect (growth inhibition grade) [2]: 5 (Growth inhibition effect is equal to or greater than 90%, or complete withering is achieved)

CCOc1c(C)cc(CS(=O)(=O)c2ncc(Cl)s2)cc1C [Compound 1C-107]
ECHDG #1 herbicidal effect (growth inhibition grade) [1]: 5 (Growth inhibition effect is equal to or greater than 90%, or complete withering is achieved)
SCIJU #1 herbicidal effect (growth inhibition grade) (Scirpus juncoides): 5 (Growth inhibition effect is equal to or greater than 90%, or complete withering is achieved)
CYMIC #1 herbicidal effect (growth inhibition grade) (Cyperus microiria): 5 (Growth inhibition effect is equal to or greater than 90%, or complete withering is achieved)
ECHDG (2-2.5L) #2 herbicidal effect (growth inhibition grade) [2]: 4 (Growth inhibition effect is equal to or greater than 70%, and less than 90%)

COc1cccc(CS(=O)(=O)c2ncc(Cl)s2)c1C [Compound 1C-67]
ECHDG #1 herbicidal effect (growth inhibition grade) [1]: 5 (Growth inhibition effect is equal to or greater than 90%, or complete withering is achieved)
SCIJU #1 herbicidal effect (growth inhibition grade) (Scirpus juncoides): 5 (Growth inhibition effect is equal to or greater than 90%, or complete withering is achieved)
CYMIC #1 herbicidal effect (growth inhibition grade) (Cyperus microiria): 5 (Growth inhibition effect is equal to or greater than 90%, or complete withering is achieved)
ECHDG (2-2.5L) #2 herbicidal effect (growth inhibition grade) [2]: 5 (Growth inhibition effect is equal to or greater than 90%, or complete withering is achieved)

COc1c(F)c(F)cc(CS(=O)(=O)c2ncc(Cl)s2)c1F [Compound 1C-74]
ECHDG #1 herbicidal effect (growth inhibition grade) [1]: 5 (Growth inhibition effect is equal to or greater than 90%, or complete withering is achieved)
SCIJU #1 herbicidal effect (growth inhibition grade) (Scirpus juncoides): 5 (Growth inhibition effect is equal to or greater than 90%, or complete withering is achieved)
CYMIC #1 herbicidal effect (growth inhibition grade) (Cyperus microiria): 5 (Growth inhibition effect is equal to or greater than 90%, or complete withering is achieved)
ECHDG (2-2.5L) #2 herbicidal effect (growth inhibition grade) [2]: 3 (Growth inhibition effect equal to or greater than 50%, and less than 70%)

CCOc1ccc(CS(=O)(=O)c2ncc(Cl)s2)cc1C [Compound 1C-97]
ECHDG #1 herbicidal effect (growth inhibition grade) [1]: 5 (Growth inhibition effect is equal to or greater than 90%, or complete withering is achieved)
SCIJU #1 herbicidal effect (growth inhibition grade) (Scirpus juncoides): 5 (Growth inhibition effect is equal to or greater than 90%, or complete withering is achieved)
CYMIC #1 herbicidal effect (growth inhibition grade) (Cyperus microiria): 5 (Growth inhibition effect is equal to or greater than 90%, or complete withering is achieved)
ECHDG (2-2.5L) #2 herbicidal effect (growth inhibition grade) [2]: 3 (Growth inhibition effect equal to or greater than 50%, and less than 70%)

O=S(=O)(Cc1ccc(OC(F)(F)F)cc1)c1ncc(Cl)s1 [Compound 1C-115]
ECHDG #1 herbicidal effect (growth inhibition grade) [1]: 5 (Growth inhibition effect is equal to or greater than 90%, or complete withering is achieved)
SCIJU #1 herbicidal effect (growth inhibition grade) (Scirpus juncoides): 5 (Growth inhibition effect is equal to or greater than 90%, or complete withering is achieved)
CYMIC #1 herbicidal effect (growth inhibition grade) (Cyperus microiria): 5 (Growth inhibition effect is equal to or greater than 90%, or complete withering is achieved)
ECHDG (2-2.5L) #2 herbicidal effect (growth inhibition grade) [2]: 1 (Growth inhibition effect is equal to or greater than 10%, and less than 30%)
